According to ChEMBL document CHEMBL3046050, “Synthesis of bioactive spiro-2-[3-(2-phenyl)-3H-indolyl]-1-aryl-3-phenylaziridines and SAR studies on their antimicrobial behavior” (Med Chem Res, 2009):

Columns and labels:
Escherichia coli [1] = test: Antimicrobial activity against Escherichia coli at 20 ug/ml after 24 hr by disk diffusion method; assay type: functional; details: read-out: IZ
Escherichia coli [2] = test: Antimicrobial activity against Escherichia coli at 20 ug/ml after 24 hr by disk diffusion method relative to ampicillin; assay type: functional
Brevundimonas diminuta [3] = test: Antimicrobial activity against Brevundimonas diminuta at 20 ug/ml after 24 hr by disk diffusion method relative to ampicillin; assay type: functional
[4] = Acute toxicity in Rattus norvegicus (rat); assay type: organism-based; details: in vivo
Priestia megaterium [5] = test: Antimicrobial activity against Bacillus megaterium at 20 ug/ml after 24 hr by disk diffusion method relative to ampicillin; assay type: functional
Brevundimonas diminuta [6] = test: Antimicrobial activity against Brevundimonas diminuta at 20 ug/ml after 24 hr by disk diffusion method; assay type: functional; details: read-out: IZ
Bacillus subtilis [7] = test: Antimicrobial activity against Bacillus subtilis at 20 ug/ml after 24 hr by disk diffusion method relative to ampicillin; assay type: functional
Bacillus subtilis [8] = test: Antimicrobial activity against Bacillus subtilis at 20 ug/ml after 24 hr by disk diffusion method; assay type: functional; details: read-out: IZ
Priestia megaterium [9] = test: Antimicrobial activity against Bacillus megaterium at 20 ug/ml after 24 hr by disk diffusion method; assay type: functional; details: read-out: IZ

Compound | zone of inhibition at 20 µg/mL (Escherichia coli [1]) [mm] | Ratio (Escherichia coli [2]) | Ratio (Brevundimonas diminuta [3]) | LD50 [4] [mg/kg] | Ratio (Priestia megaterium [5]) | zone of inhibition at 20 µg/mL (Brevundimonas diminuta [6]) [mm] | Ratio (Bacillus subtilis [7]) | zone of inhibition at 20 µg/mL (Bacillus subtilis [8]) [mm] | zone of inhibition at 20 µg/mL (Priestia megaterium [9]) [mm]
CCOc1cccc(N2C(c3ccccc3)C23C(c2ccccc2)=Nc2ccccc23)c1 (stereo not drawn) | 24.3 | 231.7 | 288.9 | 4640 | 176.6 | 26 | 263.4 | 24.5 | 20.8
c1ccc(C2=Nc3ccccc3C23C(c2ccccc2)N3c2ccccc2)cc1 (stereo not drawn) | 9.5 | 90.5 | 148.1 | 4240 | 83.3 | 13.3 | 109.3 | 10.2 | 9.8
O=[N+]([O-])c1ccccc1N1C(c2ccccc2)C12C(c1ccccc1)=Nc1ccccc12 (stereo not drawn) | 18.3 | 174.6 | 244.4 | 3560 | 151.1 | 22 | 207.9 | 19.3 | 17.8
Oc1cccc(N2C(c3ccccc3)C23C(c2ccccc2)=Nc2ccccc23)c1 (stereo not drawn) | 10.5 | 100 | 174.1 | 5080 | 89 | 15.7 | 123.7 | 11.5 | 10.5
COc1cccc(N2C(c3ccccc3)C23C(c2ccccc2)=Nc2ccccc23)c1 (stereo not drawn) | 20.8 | 198.4 | 253.7 | 5120 | 149.7 | 22.8 | 231.2 | 21.5 | 17.7
Cc1cccc(N2C(c3ccccc3)C23C(c2ccccc2)=Nc2ccccc23)c1 (stereo not drawn) | 13.5 | 128.6 | 192.6 | 3840 | 114.4 | 17.3 | 155.9 | 14.5 | 13.5
Clc1ccccc1N1C(c2ccccc2)C12C(c1ccccc1)=Nc1ccccc12 (stereo not drawn) | 17 | 161.9 | 222.2 | 4040 | 131.4 | 20 | 175.6 | 16.3 | 15.5
CC1(C)S[C@@H]2[C@H](NC(=O)[C@H](N)c3ccccc3)C(=O)N2[C@H]1C(=O)O [AMPICILLIN] | 10.5 |  |  |  |  | 9 |  | 9.3 | 11.8
CCOc1ccccc1N1C(c2ccccc2)C12C(c1ccccc1)=Nc1ccccc12 (stereo not drawn) | 25 | 238.1 | 303.7 | 4820 | 187.9 | 27.3 | 276 | 25.7 | 22.2
COc1ccccc1N1C(c2ccccc2)C12C(c1ccccc1)=Nc1ccccc12 (stereo not drawn) | 21.2 | 201.6 | 266.7 | 5150 | 158.2 | 24 | 247.3 | 23 | 18.7
O=[N+]([O-])c1ccc(N2C(c3ccccc3)C23C(c2ccccc2)=Nc2ccccc23)cc1 (stereo not drawn) | 8.8 | 84.1 | 127.8 | 5380 | 73.4 | 11.5 | 89.6 | 8.3 | 8.7
O=[N+]([O-])c1cccc(N2C(c3ccccc3)C23C(c2ccccc2)=Nc2ccccc23)c1 (stereo not drawn) | 17.7 | 168.3 | 229.6 | 4500 | 142.7 | 20.7 | 184.6 | 17.2 | 16.8
Oc1ccccc1N1C(c2ccccc2)C12C(c1ccccc1)=Nc1ccccc12 (stereo not drawn) | 11.3 | 107.9 | 188.9 | 4360 | 107.3 | 17 | 136.2 | 12.7 | 12.7
Clc1cccc(N2C(c3ccccc3)C23C(c2ccccc2)=Nc2ccccc23)c1 (stereo not drawn) | 15.8 | 150.8 | 207.4 | 4380 | 121.5 | 18.7 | 166.7 | 15.5 | 14.3
O=C(O)c1ccccc1N1C(c2ccccc2)C12C(c1ccccc1)=Nc1ccccc12 (stereo not drawn) | 4.2 | 39.7 | 64.8 | 3840 | 36.7 | 5.8 | 35.8 | 3.3 | 4.3
Oc1ccc(N2C(c3ccccc3)C23C(c2ccccc2)=Nc2ccccc23)cc1 (stereo not drawn) | 6 | 57.1 | 85.2 | 4480 | 46.6 | 7.7 | 59.1 | 5.5 | 5.5
Clc1ccc(N2C(c3ccccc3)C23C(c2ccccc2)=Nc2ccccc23)cc1 (stereo not drawn) | 7.7 | 73 | 118.5 | 4240 | 57.9 | 10.7 | 78.6 | 7.3 | 6.8
